In patent publication US20070161547A1, “Modulation of survivin expression” (priority 2003, published 2007):
Oligonucleotides are written 5' to 3', each unit as a sugar letter and its base; * is a phosphorothioate linkage, no mark a phosphodiester; rarer units and linkages stand in square brackets, end groups in braces. Plain capitals give the bases only. r = 2'-OH (RNA); {P} = phosphate

Tested on: human survivin mRNA
Test: Inhibition of human survivin mRNA by single-stranded asRNA in HUVEC, real-time quantitative PCR
Assay type: cell-based
Set-up: concentration or dose not given beside the values
Conditions: Table 7
Method: HUVEC were obtained from ATCC and routinely cultured in EBM (Clonetics Corp, Walkersille, Md.) supplemented with SingleQuots supplements. Cells were routinely passaged by trypsinizaiton and dilution when they reached 90% confluence were maintained for up to 15 passages. For cells grown in 96-well plates (10,000 cells/well), wells were washed once with 200 μL OPTI-MEM-1™ reduced-serum medium (Gibco BRL) and then treated with 130 μL of OPTI-MEM-1™ containing 12 μg/mL LIPOFECTIN™ (Gibco BRL) and the desired double-stranded compounds at a final concentration of 25 nM. After 5 hours of treatment, the medium was replaced with fresh medium. Cells were harvested 16 hours after dsRNA treatment, at which time RNA was isolated and target reduction measured by RT-PCR.
A series of single-stranded olgometric compounds (asRNA) was evaluated for their ability to inhibit human survivin in human umbilical vein endothelial cells (HUVEC). Culture methods used for HUVEC are found, for example, at www.atcc.org.
Data were obtained by real-time quantitative PCR as described in other examples herein.

| Substance | % INHIB, inhibition of human survivin mRNA levels by asRNA oligomeric compounds |
| --- | --- |
| 347427 (antisense {P}-rA*rG*rC*rA*rC*rA*rG*rU*rU*rG*rA*rA*rA*rC*rA*rU*rC*rU*rA*rA) [compound 347427] | 54% |
| 347423 (antisense {P}-rA*rU*rC*rC*rA*rU*rG*rG*rC*rA*rG*rC*rC*rA*rG*rC*rU*rG*rC*rU) [compound 347423] | 55% |
| 347433 (antisense {P}-rA*rG*rU*rC*rC*rA*rC*rA*rC*rU*rC*rA*rG*rG*rA*rC*rU*rG*rU*rG) [compound 347433] | 60% |
| 347449 (antisense {P}-rG*rG*rC*rG*rA*rA*rU*rC*rA*rA*rA*rU*rC*rC*rA*rU*rC*rA*rU*rC) [compound 347449] | 51% |
| 347446 (antisense {P}-rA*rC*rA*rG*rA*rC*rA*rC*rA*rC*rG*rG*rC*rC*rU*rG*rC*rA*rG*rC) [compound 347446] | 52% |
| 347426 (antisense {P}-rA*rU*rU*rU*rG*rA*rA*rA*rA*rU*rG*rU*rU*rG*rA*rU*rC*rU*rC*rC) [compound 347426] | 60% |
| 347447 (antisense {P}-rG*rA*rA*rC*rG*rU*rG*rA*rC*rA*rG*rA*rU*rG*rU*rG*rA*rA*rG*rG) [compound 347447] | 47% |
| 347424 (antisense {P}-rA*rA*rC*rC*rC*rU*rG*rG*rA*rA*rG*rU*rG*rG*rU*rG*rC*rA*rG*rC) [compound 347424] | 69% |
| 347429 (antisense {P}-rU*rC*rC*rC*rU*rC*rA*rC*rU*rU*rC*rU*rC*rA*rC*rC*rU*rG*rG*rU) [compound 347429] | 62% |
| 347444 (antisense {P}-rA*rA*rA*rG*rG*rA*rU*rU*rU*rA*rG*rG*rC*rC*rA*rC*rU*rG*rC*rC) [compound 347444] | 60% |
| 347451 (antisense {P}-rG*rC*rC*rG*rA*rG*rA*rU*rG*rA*rC*rC*rU*rC*rC*rA*rG*rA*rG*rG) [compound 347451] | 59% |
